Test results taken from publication PMC4076177, “Soluble Phosphatidylserine Binds to Two Sites on Human Factor IXa in a Ca^2+ Dependent Fashion to Specifically Regulate Structure and Activity” (PLoS ONE, 2014).

Biological target: T1, Human FIXa (Homo sapiens, UniProt P00740)
T1 construct: gene F9; purchased from Haematologic Technologies, no tag stated
Experiment: intrinsic fluorescence titration, single-site hyperbolic fit
Format: binding
Details: for Kd: read-out: Kd, μM (determined by monitoring change in intrinsic fluorescence)
From the text: intrinsic fluorescence titration, single-site hyperbolic fit on Human FIXa

T1 sequence (P00740 47-191): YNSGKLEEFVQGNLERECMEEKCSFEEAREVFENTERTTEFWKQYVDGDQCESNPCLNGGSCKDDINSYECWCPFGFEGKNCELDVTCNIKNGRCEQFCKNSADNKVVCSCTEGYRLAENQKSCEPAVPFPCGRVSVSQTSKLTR
T1 sequence (P00740 227-461): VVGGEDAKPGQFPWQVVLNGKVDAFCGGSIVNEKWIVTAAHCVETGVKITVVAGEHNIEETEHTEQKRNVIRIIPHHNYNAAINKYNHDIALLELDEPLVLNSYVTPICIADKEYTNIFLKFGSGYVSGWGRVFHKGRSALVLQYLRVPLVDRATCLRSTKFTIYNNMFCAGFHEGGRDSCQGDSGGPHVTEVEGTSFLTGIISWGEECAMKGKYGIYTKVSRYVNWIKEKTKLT

SMILES	Kd, μM (determined by monitoring change in intrinsic fluorescence) (5 mM CaCl2, 0.20 µM FIXa, 50 mM Tris, 150 mM NaCl, 0.6% PEG, pH 7.5, 22°C, unreliable (Figure 2 legend prints 2000 µM))	Kd
CCCCCC(=O)OC[C@H](COP(=O)([O-])OCC[N+](C)(C)C)OC(=O)CCCCC [C6PC]	1000 ± 45 µM	–
CCCCCC(=O)OC[C@H](COP(=O)(O)OCC(O)CO)OC(=O)CCCCC (stereo partly drawn) [C6PG]	–	307 ± 28.8 µM
CCCCCC(=O)OC[C@H](COP(=O)(O)OCCN)OC(=O)CCCCC [C6PE]	–	66 ± 7 µM
CCCCCC(=O)OC[C@H](COP(=O)(O)O)OC(=O)CCCCC [C6PA]	–	238 ± 42.7 µM
CCCCCC(=O)OC[C@H](COP(=O)(O)OC[C@@H](N)C(=O)O)OC(=O)CCCCC [C6(D)PS]	–	208 ± 18 µM
CCCCCC(=O)OC[C@H](COP(=O)(O)OC[C@H](N)C(=O)O)OC(=O)CCCCC [C6PS, 1,2-dicaproyl-sn-glycero-3-phospho-L-serine]	–	1.3 ± 0.2 µM
